Drawing on patent US5824706A (priority 1995, dated 1998), this text covers EC50 and CC50 for one compound.

One data set has as its system FluV-A. Description: microbe, parasite or virus in culture. It is filed as cell-based, influenza virus A/Ishikawa/7/82 (H3N2).
For another data set, the system named is RSV. As to the kind of experiment: microbe, parasite or virus in culture. It counts as cell-based, RSV Long strain (type-A). Conditions: human respiratory syncytial virus.
The test system of another data set is MLSV. As to the kind of experiment: microbe, parasite or virus in culture. Conditions: Measles morbillivirus. It is filed as cell-based, Measles virus (MLSV) Edmonston strain.
A further data set concerns FluV-B. Description: MTT antiviral assay, FluV-B in MDCK cells. Conditions: influenza B virus, read-out: EC50 FluV-B (Singapore). It counts as cell-based, influenza virus B/Singapore/222/79. (Formazan colour is commonly taken as a measure of viable cells.)
The test system of another data set is RSV-A (FM-58-8). Description: microbe, parasite or virus in culture. It counts as cell-based, RSV FM-58-8 (type-A). Conditions: human respiratory syncytial virus; Table 3; fresh isolate; ^b data from one experiment.
The subject of another data set is RSV-B (SM61-48). Description: microbe, parasite or virus in culture. It counts as cell-based, RSV SM-61-48 (type-B). Conditions: human respiratory syncytial virus; Table 3; fresh isolate; ^b data from one experiment.
A further data set concerns MPSV. As to the kind of experiment: MTT antiviral assay, mumps virus in HMV-2 cells. It is filed as cell-based, mumps virus (MPSV) ECXH-3 strain. Particulars: Mumps orthorubulavirus, HMV-2, read-out: EC50 MPSV (EXCH-3).
Another data set deals with PFluV-2. As to the kind of experiment: MTT antiviral assay, parainfluenzavirus type 2 in HMV-2 cells. It counts as cell-based, Greer strain. Particulars: Table 3, average of 3 to 4 independent experiments, read-out: EC50 PFluV-2 (Greer).
A further data set relates to PFluV-3. Description: MTT antiviral assay, parainfluenzavirus type 3 in Vero cells. It counts as cell-based, C243 strain. Conditions: Table 3, average of 3 to 4 independent experiments, read-out: EC50 PFluV-3 (C243).
For the next data set, the system named is HMV-2 cells. Particulars: read-out: Cytotoxicity IC50 HMV-2, Table 3.
Data set [1] can be described thus: in vitro. Particulars: dog, mdck.
The nature of data set [2]: in vitro. Particulars: human, hep-2 cells.
The nature of data set [3]: in vitro. Particulars: human, hmv-2 cells.
The nature of data set [4]: in vitro. Particulars: monkey, vero cells, Cytotoxicity IC50 Vero, Table 3.
[5] abbreviates: viable cell counting (parentheses).

Broadly, the EC50 is the concentration needed to bring the measured effect to its halfway point.

Read-outs that look alike come from different tables or passages of the source.

Regarding `NC(=O)c1ncn([C@@H]2O[C@H](CO)[C@@H](O)[C@H]2O)n1` [Ribavirin], the EC50 with FluV-A (Ishikawa, read-out: EC50 FluV-A (Ishikawa)) is 3.7 µM; with FluV-A (MDCK, read-out: Antiviral activity, EC50 FluV-A) it was 8.7 µM; with RSV (Table 2, read-out: Antiviral activity, EC50 RSV) it was 4.7 µM; in the data set on RSV (Table 3, average of 3 to 4 independent experiments, read-out: EC50 RSV-A (Long)), 4.7 µM; with MLSV (HMV-2, read-out: Antiviral activity, EC50 MLSV), 5.2 µM; in the data set on MLSV (HMV-2, read-out: EC50 MLSV (Edmonston)) it was 5.2 µM. The EC50 in the data set with FluV-B amounted to 5.1 µM; with RSV-A (FM-58-8), 3.5 µM; in the data set on RSV-B (SM61-48), 1.6 µM; with MPSV, 3.4 µM; in the data set with PFluV-2, 8.9 µM; with PFluV-3, 17.2 µM. The CC50 in the data set with HMV-2 cells (MTT method) was above 100 µM; with HMV-2 cells (setting [5]) it was above 100 µM; in “in vitro [1]” (Cytotoxicity IC50 MDCK, Table 3, MTT method) it was above 200 µM; in the data set “in vitro [1]” (Cytotoxicity IC50 MDCK, Table 3, viable cell counting (parentheses)), above 200 µM; in “in vitro [1]” (Cytotoxicity, IC50 MDCK, Table 2), above 100 µM; in “in vitro [2]” (Cytotoxicity IC50 HEp-2, Table 3, MTT method), 52.7 µM. In addition, the CC50 in “in vitro [2]” (Cytotoxicity IC50 HEp-2, Table 3, viable cell counting (parentheses)) was above 200 µM; in “in vitro [2]” (Cytotoxicity, IC50 HEp-2, Table 2), above 50 µM; in “in vitro [3]” it was above 100 µM; in the data set “in vitro [4]” (MTT method), 100 µM; in the data set “in vitro [4]” (setting [5]), above 200 µM.
